# Measurements taken from publication PMC10688161 (ACS Omega, 2023).
# pIC50: −log10 of the molar value.
# Biological target: SARS-CoV-2 M^pro (3CL^pro), MBP-tagged 3CL protease (Severe acute respiratory syndrome coronavirus 2, UniProt P0DTD1)
# Assay: biochemical
smiles,measurement,value
"O=C(O)c1cc(C(=O)O)c2c(n1)C(=O)C(=O)c1cc(C(=O)O)[nH]c1-2 [PQQ, 4,5-dioxo-4,5-dihydro-1H-pyrrolo[2,3-f] quinoline-2,7,9-tricarboxylic acid]",pIC50,5.55
